From US7291612B2, “Immunomodulatory compounds” (Active Biotech A.B., priority 2002, dated 2007)
Where a name gives a salt, the structure may show the parent alone. Read-outs that look alike come from different tables or passages of the source.

Target: T1, CD80-CD28 interaction (Homo sapiens, UniProt P33681)
T1 construct: mouse Fab fragment (fusion partner)
T1 sequence (P33681 35-242 limits assumed): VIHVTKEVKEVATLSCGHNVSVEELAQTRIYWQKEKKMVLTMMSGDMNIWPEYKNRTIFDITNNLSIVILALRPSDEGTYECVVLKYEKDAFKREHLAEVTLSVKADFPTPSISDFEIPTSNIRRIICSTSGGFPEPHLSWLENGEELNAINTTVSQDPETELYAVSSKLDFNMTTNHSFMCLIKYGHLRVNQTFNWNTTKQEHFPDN
Test: cell free Homogenous Time Resolved Fluorescence (HTRF) assay, inhibition of the CD80-CD28 interaction
Type: binding
Description: The examples described above were tested in a cell free Homogenous Time Resolved Fluorescence (HTRF) assay to determine their activity as inhibitors of the CD80-CD28 interaction.
In the assay, europium and allophycocyanin (APC) are associated with CD28 and CD80 indirectly (through antibody linkers) to form a complex, which brings the europium and APC into close proximity to generate a signal. The complex comprises the following six proteins: fluorescent label 1, linker antibody 1, CD28 fusion protein, CD80 fusion protein, linker antibody 2, and fluorescent label 2. The table below describes these reagents in greater detail.
On formation of the complex, europium and APC are brought into proximity and a signal is generated.
Non-specific interaction was measured by substituting a mouse Fab fragment (C215) for the CD80 mouse Fab fragment fusion protein (1.9 μg/ml). The assay was carried out in black 384 well plates in a final volume of 30 μl. Assay buffer: 50 mM Tris-HCl, 150 mM NaCl pH7.8, containing 0.1% BSA (w/v) added just prior to use.
Compounds were added to the above reagents in a concentration series ranging between 100 μM-1.7 nM. The reaction was incubated for 4 hours at room temperature. Dual measurements were made using a Wallac Victor 1420 Multilabel Counter. First measurement: excitation 340 nm, emission 665 nm, delay 50 μs, window time 200 μs. second measurement: excitation 340 nm, emission 615 nm, delay 50 μs, window time 200 μs. Counts were automatically corrected for fluorescence crossover, quenching and background.

[1] = 4 hours at room temperature, read-out: Activity (EC50 in summary form)

Structure (SMILES) | EC50 [1] [nM] | EC50 (read-out: EC50) [nM]
COC(=O)CNC(=O)c1cccc(-n2nc3c4cccc(F)c4[nH]cc-3c2=O)c1 [Example 61] | > 10000 | –
C#CCNC(=O)c1cccc(-n2nc3c4cccc(F)c4[nH]cc-3c2=O)c1 [Example 62] | 1000 to 10000 | –
CN(Cc1ccccc1)C(=O)c1cccc(-n2nc3c4cccc(F)c4[nH]cc-3c2=O)c1 [Example 63] | 1000 to 10000 | –
CCOC(=O)C1CCN(C(=O)c2cccc(-n3nc4c5cccc(F)c5[nH]cc-4c3=O)c2)CC1 [Example 64] | > 10000 | –
CN(C)CCCNC(=O)c1ccc(-n2nc3c4ccccc4[nH]c(C4CC4)c-3c2=O)cc1 [Example 65, N-(3-Dimethylaminopropyl)-4-(4-cyclopropyl-3-oxo-3,5-dihydro-pyrazolo[4,3-c]quinolin-2-yl]-benzamide] | < 1000 | –
CN(C)CCCNC(=O)c1ccc(-n2nc3c4cccc(F)c4[nH]cc-3c2=O)cc1 [Example 66, N-(3-Dimethylaminopropyl)-4-(6-fluoro-3-oxo-3,5-dihydro-pyrazolo[4,3-c]quinolin-2-yl]-benzamide hydrochloride] | < 1000 | –
O=C(c1ccc(-n2nc3c4cccc(F)c4[nH]cc-3c2=O)cc1)N1CCCCC1 [Example 67] | 1000 to 10000 | –
O=C(NCc1ccccc1)c1ccc(-n2nc3c4cccc(F)c4[nH]cc-3c2=O)cc1 [Example 68] | < 1000 | –
CN(Cc1ccccc1)C(=O)c1ccc(-n2nc3c4cccc(F)c4[nH]cc-3c2=O)cc1 [Example 69] | 1000 to 10000 | –
COCCNC(=O)c1ccc(-n2nc3c4cccc(F)c4[nH]cc-3c2=O)cc1 [Example 70] | < 1000 | –
CN(C)CCNC(=O)c1ccc(-n2nc3c4cccc(F)c4[nH]cc-3c2=O)cc1 [Example 71] | < 1000 | –
COC(=O)CNC(=O)c1ccc(-n2nc3c4cccc(F)c4[nH]cc-3c2=O)cc1 [Example 72] | < 1000 | –
COCCCNC(=O)c1ccc(-n2nc3c4cccc(F)c4[nH]cc-3c2=O)cc1 [Example 73] | < 1000 | –
O=C(NCCC1=CCCCC1)c1ccc(-n2nc3c4cccc(F)c4[nH]cc-3c2=O)cc1 [Example 75] | 1000 to 10000 | –
O=C(NCC1CCCCC1)c1ccc(-n2nc3c4cccc(F)c4[nH]cc-3c2=O)cc1 [Example 76] | 1000 to 10000 | –
CCNC(=O)c1ccc(-n2nc3c4cccc(F)c4[nH]cc-3c2=O)cc1 [Example 77] | < 1000 | –
CCN(CC)C(=O)c1ccc(-n2nc3c4cccc(F)c4[nH]cc-3c2=O)cc1 [Example 78] | 1000 to 10000 | –
N[C@H]1CC[C@H](NC(=O)c2ccc(-n3nc4c5cccc(F)c5[nH]cc-4c3=O)cc2)CC1 [Example 79] | < 1000 | –
CN(C)CCCN(C)C(=O)c1ccc(-n2nc3c4cccc(F)c4[nH]cc-3c2=O)cc1 [Example 80] | < 1000 | –
CN(C)CCCCNC(=O)c1ccc(-n2nc3c4cccc(F)c4[nH]cc-3c2=O)cc1 [Example 81] | < 1000 | –
O=C(NCCCCN1CCCC1)c1ccc(-n2nc3c4cccc(F)c4[nH]cc-3c2=O)cc1 [Example 82] | < 1000 | –
O=C(NCCCN1CCCC1)c1ccc(-n2nc3c4cccc(F)c4[nH]cc-3c2=O)cc1 [Example 83] | < 1000 | 90

Structure (SMILES) | EC50 [1] [nM] | EC50 (read-out: EC50) [nM]
O=C(NCCN1CCN(Cc2ccccc2)CC1)c1ccc(-n2nc3c4cccc(F)c4[nH]cc-3c2=O)cc1 [Example 84] | < 1000 | –
CN(C)CCCNC(=O)c1ccc(-n2nc3c4ccccc4[nH]cc-3c2=O)cc1 [Example 86] | < 1000 | –
CCN(CC)CCCCNC(=O)c1ccc(-n2nc3c4ccccc4[nH]cc-3c2=O)cc1 [Example 88] | 1000 to 10000 | –
CN(C)CCCN(C)C(=O)c1ccc(-n2nc3c4ccccc4[nH]cc-3c2=O)cc1 [Example 89] | 1000 to 10000 | –
CN(C)CCCNC(=O)c1ccc(-n2nc3c4cccc(F)c4[nH]cc-3c2=O)cc1Cl [Example 90] | 1000 to 10000 | –
O=C(NCCCN1CCCC1)c1ccc(-n2nc3c4ccccc4[nH]cc-3c2=O)cc1 [Example 91] | 1000 to 10000 | –
O=C(NCCCN1CCN(Cc2c(F)cccc2Cl)CC1)c1ccc(-n2nc3c4ccccc4[nH]cc-3c2=O)cc1 [Example 92] | 1000 to 10000 | –
CN1CCN(CCCNC(=O)c2ccc(-n3nc4c5ccccc5[nH]cc-4c3=O)cc2)CC1 [Example 93] | 1000 to 10000 | –
O=C(NCCN1CCN(Cc2ccccc2)CC1)c1ccc(-n2nc3c4ccccc4[nH]cc-3c2=O)cc1 [Example 94] | 1000 to 10000 | –
O=C(NCCCN1CCN(Cc2c(F)cccc2Cl)CC1)c1ccc(-n2nc3c4cccc(F)c4[nH]cc-3c2=O)cc1 [Example 95] | < 1000 | –
CCN(CC)CCCC(C)NC(=O)c1ccc(-n2nc3c4cccc(F)c4[nH]cc-3c2=O)cc1 (stereo not drawn) [Example 97] | < 1000 | –
CN1CCN(CCCNC(=O)c2ccc(-n3nc4c5cccc(F)c5[nH]cc-4c3=O)cc2)CC1 [Example 98] | < 1000 | –
O=C(NCCCCN1CCCC1)c1ccc(-n2nc3c4cccc(F)c4[nH]cc-3c2=O)c(Cl)c1 [Example 99] | 1000 to 10000 | –
CN1CCN(CCCNC(=O)c2ccc(-n3nc4c5cccc(F)c5[nH]cc-4c3=O)cc2Cl)CC1 [Example 100] | 1000 to 10000 | –
CCN(CC)CCCCNC(=O)c1ccc(-n2nc3c4cccc(F)c4[nH]cc-3c2=O)cc1Cl [Example 102] | 1000 to 10000 | –
CN(C)CCCNC(=O)c1ccc(-n2nc3c4cccc(F)c4[nH]cc-3c2=O)c(Cl)c1 [Example 103] | 1000 to 10000 | –
O=C(NCCCCN1CCCC1)c1ccc(-n2nc3c4ccccc4[nH]c(C4CC4)c-3c2=O)cc1 [Example 104] | < 1000 | –
O=C(c1ccc(-n2nc3c4cccc(F)c4[nH]cc-3c2=O)cc1)N1CCN(Cc2ccc(Cl)cc2)CC1 [Example 105] | > 10000 | –
CN(CCCNC(=O)c1ccc(-n2nc3c4cccc(F)c4[nH]cc-3c2=O)cc1)c1ccccc1 [Example 106] | < 1000 | –
CC1CCCCN1CCCNC(=O)c1ccc(-n2nc3c4cccc(F)c4[nH]cc-3c2=O)cc1Cl (stereo not drawn) [Example 108] | 1000 to 10000 | –
CN(C)c1ccc(CNC(=O)c2ccc(-n3nc4c5cccc(F)c5[nH]cc-4c3=O)cc2)cc1 [Example 109] | < 1000 | –
CN(C)CCCCNC(=O)c1ccc(-n2nc3c4cccc(F)c4[nH]cc-3c2=O)cc1Cl [Example 110] | 1000 to 10000 | –

Structure (SMILES) | EC50 [1] [nM] | EC50 (read-out: EC50) [nM]
CN1CCN(C(=O)c2ccc(-n3nc4c5cccc(F)c5[nH]cc-4c3=O)cc2)CC1 [Example 111] | 1000 to 10000 | –
CC1CCCCN1CCCNC(=O)c1ccc(-n2nc3c4cccc(F)c4[nH]cc-3c2=O)cc1 (stereo not drawn) [Example 112] | < 1000 | –
O=C(NCCN1CCOCC1)c1ccc(-n2nc3c4cccc(F)c4[nH]cc-3c2=O)cc1 [Example 113] | < 1000 | –
CCN1CCCC1CNC(=O)c1ccc(-n2nc3c4cccc(F)c4[nH]cc-3c2=O)cc1 (stereo not drawn) [Example 114] | < 1000 | –
CN1C(C)(C)CC(NC(=O)c2ccc(-n3nc4c5cccc(F)c5[nH]cc-4c3=O)cc2)CC1(C)C [Example 115] | < 1000 | –
O=C(NC1CCN(Cc2ccccc2)CC1)c1ccc(-n2nc3c4cccc(F)c4[nH]cc-3c2=O)cc1 [Example 116] | < 1000 | –
CN(C)CC(C)(C)CNC(=O)c1ccc(-n2nc3c4cccc(F)c4[nH]cc-3c2=O)cc1 [Example 117] | < 1000 | –
CC1(C)CC(NC(=O)c2ccc(-n3nc4c5cccc(F)c5[nH]cc-4c3=O)cc2)CC(C)(C)N1 [Example 118] | < 1000 | –
O=C(NCCc1cccnc1)c1ccc(-n2nc3c4cccc(F)c4[nH]cc-3c2=O)cc1 [Example 119] | 1000 to 10000 | –
CCSCCNC(=O)c1ccc(-n2nc3c4cccc(F)c4[nH]cc-3c2=O)cc1 [Example 120] | < 1000 | –
O=C(NCCCN1CCCC1=O)c1ccc(-n2nc3c4cccc(F)c4[nH]cc-3c2=O)cc1 [Example 121] | 1000 to 10000 | –
O=C(NCCCn1ccnc1)c1ccc(-n2nc3c4cccc(F)c4[nH]cc-3c2=O)cc1 [Example 122] | < 1000 | –
O=C(NC1CCCCNC1=O)c1ccc(-n2nc3c4cccc(F)c4[nH]cc-3c2=O)cc1 (stereo not drawn) [Example 123] | 1000 to 10000 | –
CCN(CC)CCCCNC(=O)c1ccc(-n2nc3c4cccc(F)c4[nH]cc-3c2=O)cc1 [Example 124] | < 1000 | –
O=C(NC1CCN(Cc2ccccc2)CC1)c1ccc(-n2nc3c4cccc(F)c4[nH]c(C4CC4)c-3c2=O)cc1 [Example 125] | < 1000 | –
O=C(NCCc1ccccn1)c1ccc(-n2nc3c4cccc(F)c4[nH]cc-3c2=O)cc1 [Example 127] | > 10000 | –
CSCCCNC(=O)c1ccc(-n2nc3c4cccc(F)c4[nH]cc-3c2=O)cc1 [Example 128] | 1000 to 10000 | –
CN1C(C)(C)CC(NC(=O)c2ccc(-n3nc4c5ccccc5[nH]c(C5CC5)c-4c3=O)cc2)CC1(C)C [Example 129] | < 1000 | –
O=C(NCCCCN1CCCC1)c1ccc(-n2nc3c4cccc(F)c4[nH]c(C4CC4)c-3c2=O)cc1 [Example 130] | < 1000 | –
CN1C2CCC1CC(NC(=O)c1ccc(-n3nc4c5cccc(F)c5[nH]cc-4c3=O)cc1)C2 (stereo not drawn) [Example 131] | < 1000 | –
CN(C)CCCNC(=O)c1ccc(-n2nc3c4cccc(F)c4[nH]c(C4CC4)c-3c2=O)cc1 [Example 132] | < 1000 | –
